The source of these data is patent US20040092475A1, “Organic compounds” (priority 2002, published 2004).

Molecules are shown by their SMILES. Where a name gives a salt, the structure may show the parent alone.

Assay [1] addresses T1, human TRPC6 ion channel (Homo sapiens, UniProt Q9Y210).
T1 construct: expressed in transfected cells; host or cells: TRPC6 clone 14 cells
T1 sequence (Q9Y210 1-931): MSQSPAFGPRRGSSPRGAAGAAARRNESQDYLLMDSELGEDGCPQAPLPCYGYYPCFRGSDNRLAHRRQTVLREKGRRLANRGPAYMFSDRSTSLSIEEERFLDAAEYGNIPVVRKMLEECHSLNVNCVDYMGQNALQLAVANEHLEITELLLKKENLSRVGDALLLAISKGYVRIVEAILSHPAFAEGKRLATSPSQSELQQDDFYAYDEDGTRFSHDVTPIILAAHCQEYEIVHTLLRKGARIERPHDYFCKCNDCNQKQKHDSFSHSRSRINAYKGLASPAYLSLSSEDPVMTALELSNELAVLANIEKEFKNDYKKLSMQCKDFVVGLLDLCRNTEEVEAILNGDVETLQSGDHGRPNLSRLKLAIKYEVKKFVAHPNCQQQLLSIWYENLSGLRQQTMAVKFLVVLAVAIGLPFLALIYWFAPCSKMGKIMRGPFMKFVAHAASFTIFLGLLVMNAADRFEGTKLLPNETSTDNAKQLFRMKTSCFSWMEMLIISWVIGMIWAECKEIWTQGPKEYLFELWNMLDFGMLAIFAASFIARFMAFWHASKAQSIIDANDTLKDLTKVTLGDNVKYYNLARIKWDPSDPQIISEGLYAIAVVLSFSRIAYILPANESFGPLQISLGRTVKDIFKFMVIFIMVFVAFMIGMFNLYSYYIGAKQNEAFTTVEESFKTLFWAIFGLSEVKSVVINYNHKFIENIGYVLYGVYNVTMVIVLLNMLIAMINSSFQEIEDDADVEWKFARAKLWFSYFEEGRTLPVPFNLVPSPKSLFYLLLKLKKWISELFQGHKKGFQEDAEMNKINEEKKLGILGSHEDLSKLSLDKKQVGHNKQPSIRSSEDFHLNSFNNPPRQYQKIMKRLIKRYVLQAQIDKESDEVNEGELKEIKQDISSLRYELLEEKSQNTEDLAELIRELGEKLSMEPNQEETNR
The experiment in a line: FLIPR membrane potential assay, carbachol-stimulated TRPC6-expressing cells (TRPC6 clone 14). The class given is cell-based. The conditions noted are these: for Mean fluorescence response calculated as (Max − Min)/Min: 10 min pre-treatment, n=10 wells, control 1.219. The protocol: In a suitable test for any inhibition of the TRPC6 channel, cells that express an endogenous G protein-coupled calcium mobilising receptor e.g. muscarinic acetylcholine receptor that can activate TRPC6 channels are used and a receptor agonist e.g. muscarinic acetylcholine receptor agonist is added to stimulate the TRPC6 channels. The cells are treated with the candidate substance prior to addition of the receptor agonist. That should produce an increase in fluorescence, but the magnitude of the increase will be reduced if the candidate substance inhibits the TRPC6 channels. Any change in fluorescence can be measured using suitable equipment, for example a fluorescence imaging plate reader.
An assay for screening candidate or test compounds is performed using cells stably-transfected with TRPC6 and expressing a functional TRPC6 channel e.g. the mammalian cell line HEK 293 which expresses an endogenous muscarinic acetylcholine receptor which can activate TRPC6 channels. […] The TRPC6-expressing cells are seeded in 96-well black-walled flat-bottomed microplates in a plating volume of 100 μl and grown to confluence for the assay. To prepare the cells for the assay, the cell culture medium is removed and 100 μl of loading buffer is added to each well. The loading buffer consists of FLIPR® membrane potential dye diluted to the required assay concentration in a buffer composed of 140 mM-NaCl, 0.15 mM CaCl2, 3.3 mM KH2PO4, 1.2 mM MgCl2, 10 mM D-glucose and 20 m M HEPES, at pH7.4 and containing 0.03 mM BAPTA-AM. The plates are incubated at 37° C. for 20 minutes prior to commencing the assay. For the detection of inhibitors of TRPC6, test agents are added to each well either before or after stimulation with the muscarinic acetylcholine receptor agonist carbachol, which activates the TRPC6 channel. The expected effect of an inhibitor would be to reduce the carbachol-stimulated increase in fluorescence. Activators of TRPC6 may be detected by substituting carbachol for a test agent, where activators will stimulate an increase in fluorescence.
TRPC6 clone 14 cells pre-treated with 1-[b-[3-(4-methoxyphenyl)propoxy]-4-methoxyphenethyl]-1H-imidazole.HCl for 10 minutes are stimulated with carbachol (10 μM) in accordance with the assay described in Example 2. The fluorescence is measured prior to carbachol addition (minimum response, i.e. Min.) and when the carbachol-stimulated increase in fluorescence has reached a maximum (maximum response, i.e. Max.). It can be seen in table 1 below that the reduced fluorescence responses are observed in compound treated-cells compared to the control response in the absence of compound.
The data is calculated as a (Max−Min)/Min response. Each concentration of 1-[b-[3-(4-methoxyphenyl)propoxy]-4-methoxyphenethyl]-1H-imidazole.HCl is the mean±SEM (standard error of the mean) of n=10 wells.

For assay [2], the system named is receptor-mediated calcium entry (RMCE). The conditions noted are these: Merritt et al, Biochem. J. (1990) 271: 515-522; cited from earlier work.
The target of assay [3] is T2, murine TRPC6 ion channel (Mus musculus, UniProt Q61143).
T2 sequence (Q61143 1-930): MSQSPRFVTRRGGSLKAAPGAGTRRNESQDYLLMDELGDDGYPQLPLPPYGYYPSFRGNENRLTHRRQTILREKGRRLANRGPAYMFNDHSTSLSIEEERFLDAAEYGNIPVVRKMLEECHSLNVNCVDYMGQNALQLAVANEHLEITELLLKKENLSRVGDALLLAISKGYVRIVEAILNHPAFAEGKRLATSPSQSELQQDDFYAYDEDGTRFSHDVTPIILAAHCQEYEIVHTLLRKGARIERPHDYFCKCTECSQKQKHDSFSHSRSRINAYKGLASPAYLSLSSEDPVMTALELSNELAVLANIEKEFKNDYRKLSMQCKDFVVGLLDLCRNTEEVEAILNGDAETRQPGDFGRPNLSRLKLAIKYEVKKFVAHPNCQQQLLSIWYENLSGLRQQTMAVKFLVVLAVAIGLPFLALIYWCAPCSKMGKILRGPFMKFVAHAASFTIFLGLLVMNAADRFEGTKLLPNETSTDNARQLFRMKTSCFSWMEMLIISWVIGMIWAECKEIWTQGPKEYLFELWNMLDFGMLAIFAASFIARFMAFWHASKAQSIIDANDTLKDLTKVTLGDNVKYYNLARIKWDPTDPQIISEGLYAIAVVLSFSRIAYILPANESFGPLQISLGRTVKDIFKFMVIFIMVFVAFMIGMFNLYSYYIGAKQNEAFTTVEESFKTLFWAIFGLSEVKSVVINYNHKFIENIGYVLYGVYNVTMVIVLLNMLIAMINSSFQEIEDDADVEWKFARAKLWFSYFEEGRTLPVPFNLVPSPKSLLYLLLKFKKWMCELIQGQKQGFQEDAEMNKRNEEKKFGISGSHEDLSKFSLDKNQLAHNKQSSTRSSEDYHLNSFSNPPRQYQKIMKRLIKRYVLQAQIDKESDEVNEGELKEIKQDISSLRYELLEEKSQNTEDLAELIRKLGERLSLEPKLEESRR
To be noted: Inoue et al, Circ. Res. (2001) 88: 325-332; cited from earlier work.

As for `COc1ccc(CCCOC(Cn2ccnc2)c2ccc(OC)cc2)cc1` (stereo not shown) [1-[b-[3-(4-methoxyphenyl)propoxy]-4-methoxyphenethyl]-1H-imidazole.HCl], the “Mean fluorescence response calculated as (Max − Min)/Min” value in assay [1] (compound concentration 0.1 μM, carbachol 10 μM) is recorded as 1.172; in assay [1] (compound concentration 1.0 μM, carbachol 10 μM), 0.977; in assay [1] (compound concentration 03 μM (so in the source), carbachol 10 μM), 1.128; in assay [1] (compound concentration 3.0 μM, carbachol 10 μM) it was 0.699; in assay [1] (compound concentration 10.0 μM, carbachol 10 μM), 0.278; in assay [1] (compound concentration 30.0 μM, carbachol 10 μM), 0.122. For the same compound, the IC50 in assay [1] (mean±S.E.M. from n=4 experiments, carbachol 10 μM, read-out: calculated mean IC50 value) was 4.9 ± 0.8 µM. Moreover, the “activity of the human TRPC6 ion channel” value in assay [1] (result in words) is on record as “inhibits”. In addition, in assay [2], the “receptor-mediated calcium entry (RMCE)” value was “inhibit”. Also, the “murine TRPC6 ion channel block” value in assay [3] is given as “block”.

The term IC50 denotes the concentration needed to halve the response being measured.
